Assays:
[1] = tested on: CHOP, BiP, and DR5 mRNA in HCT116 cells; experiment: qPCR of UPR target transcripts (CHOP, BiP, DR5); format: cell-based, Homo sapiens; details: for 2^-(deltaCq) CHOP / 2^-(deltaCq) DR5 total / Cq CHOP / Cq DR5 total / Cq(sample) - avg Cq(GAPDH), CHOP / Cq(sample) - avg Cq(GAPDH), DR5 total / avg. fold induction CHOP / avg. fold induction DR5 total / fold induction CHOP / fold induction DR5 total: Rep 2; for avg. fold induction CHOP / avg. fold induction DR5 total / fold induction CHOP / fold induction DR5 total: vs 24 hr cytoGFP (empty traffo)
Protocol: Cells were grown in 6-well plates and harvested with 0.5 ml of TRIzol reagent (Life Technologies) per manufacturer’s protocol to extract RNA. For cDNA synthesis, 500 ng of total RNA was reverse transcribed with 2 μl of the SuperScript VILO master mix (Life Technologies # 11755050) in a total reaction volume of 10 μl following the manufacturer’s protocol for reaction temperature and duration. The reverse transcription product was diluted to 200 μl with 10 mM Tris-HCl pH 8.2 and used at 1:100 dilution for subsequent RT-PCR reactions.
PCR samples were prepared as described by manufacturer’s protocols from iQ SYBR Green Supermix (BioRad #17088800).
For each experiment, qRT-PCR reactions were set up in triplicate and run using a CFX96 Real Time System (Bio-Rad). Quantitation cycles were determined with CFX Manager 3.0 software (Bio-Rad) and then normalized to GAPDH as an internal control.

[2] = tested on: HCT116 cells; experiment: Annexin V (and SytoxBlue) flow cytometry for apoptosis; format: cell-based, Homo sapiens
Outline: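 HCT116 cells transfected with the specified plasmid for 24 hr, trypsinized and allowed 30 min recovery at 37°C. Stained with Annexin V-AlexaFluor 647 (1:20) for 15 min at RT in the dark; apoptotic cell distribution determined by flow cytometry.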

[3] = 1000 ng plasmid, sheet Rep 1, mean of 3 replicates
[4] = Compiled Reps INS RHO, average of 6 reps

Q: Which results are given for “RHO-GFP: GFP-tagged rhodopsin expressed from plasmid”?
A: 2^-(deltaCq) for GFP norm to GAPDH, avg ([1]; 1000 ng plasmid, sheet Rep 1, mean): 55.6234; BiP avg fold induction relative to empty traffo [1, 3]: 1.525; CHOP avg fold induction relative to empty traffo [1, 3]: 2.086; DR5 total avg fold induction relative to empty traffo [1, 3]: 1.336; GAPDH avg fold induction relative to empty traffo [1, 3]: 1.003; 2^-(deltaCq) CHOP ([1]; 3 hr, replicate 1): 0.04356; 2^-(deltaCq) DR5 total ([1]; 3 hr, replicate 1): 0.02287; Cq CHOP ([1]; 3 hr, replicate 1): 24.2586; Cq DR5 total ([1]; 3 hr, replicate 1): 25.1882; Cq(sample) - avg Cq(GAPDH), CHOP ([1]; 3 hr, replicate 1): 4.521; Cq(sample) - avg Cq(GAPDH), DR5 total ([1]; 3 hr, replicate 1): 5.45; 2^-(deltaCq) CHOP ([1]; 3 hr, replicate 2): 0.03694; 2^-(deltaCq) DR5 total ([1]; 3 hr, replicate 2): 0.02336; Cq CHOP ([1]; 3 hr, replicate 2): 24.4965; Cq DR5 total ([1]; 3 hr, replicate 2): 25.1574; Cq(sample) - avg Cq(GAPDH), CHOP ([1]; 3 hr, replicate 2): 4.759; Cq(sample) - avg Cq(GAPDH), DR5 total ([1]; 3 hr, replicate 2): 5.42; 2^-(deltaCq) CHOP ([1]; 3 hr, replicate 3): 0.03617; 2^-(deltaCq) DR5 total ([1]; 3 hr, replicate 3): 0.01987; Cq CHOP ([1]; 3 hr, replicate 3): 24.5271; Cq DR5 total ([1]; 3 hr, replicate 3): 25.391; Cq(sample) - avg Cq(GAPDH), CHOP ([1]; 3 hr, replicate 3): 4.789; Cq(sample) - avg Cq(GAPDH), DR5 total ([1]; 3 hr, replicate 3): 5.653; avg. fold induction CHOP ([1]; 3 hr, mean of 3 replicates): 1.784; avg. fold induction DR5 total ([1]; 3 hr, mean of 3 replicates): 0.7693; fold induction CHOP ([1]; 3 hr, replicate 1): 1.9981; fold induction DR5 total ([1]; 3 hr, replicate 1): 0.7985; fold induction CHOP ([1]; 3 hr, replicate 2): 1.694; fold induction DR5 total ([1]; 3 hr, replicate 2): 0.8157; fold induction CHOP ([1]; 3 hr, replicate 3): 1.659; fold induction DR5 total ([1]; 3 hr, replicate 3): 0.6938; 2^-(deltaCq) CHOP ([1]; 7 hr, replicate 1): 0.1012; 2^-(deltaCq) DR5 total ([1]; 7 hr, replicate 1): 0.0421; Cq CHOP ([1]; 7 hr, replicate 1): 22.9621; Cq DR5 total ([1]; 7 hr, replicate 1): 24.2279; Cq(sample) - avg Cq(GAPDH), CHOP ([1]; 7 hr, replicate 1): 3.304; Cq(sample) - avg Cq(GAPDH), DR5 total ([1]; 7 hr, replicate 1): 4.57; 2^-(deltaCq) CHOP ([1]; 7 hr, replicate 2): 0.09032; 2^-(deltaCq) DR5 total ([1]; 7 hr, replicate 2): 0.04029; Cq CHOP ([1]; 7 hr, replicate 2): 23.1268; Cq DR5 total ([1]; 7 hr, replicate 2): 24.2914; Cq(sample) - avg Cq(GAPDH), CHOP ([1]; 7 hr, replicate 2): 3.4688; Cq(sample) - avg Cq(GAPDH), DR5 total ([1]; 7 hr, replicate 2): 4.633; 2^-(deltaCq) CHOP ([1]; 7 hr, replicate 3): 0.09401; 2^-(deltaCq) DR5 total ([1]; 7 hr, replicate 3): 0.03735; Cq CHOP ([1]; 7 hr, replicate 3): 23.069; Cq DR5 total ([1]; 7 hr, replicate 3): 24.4008; Cq(sample) - avg Cq(GAPDH), CHOP ([1]; 7 hr, replicate 3): 3.411; Cq(sample) - avg Cq(GAPDH), DR5 total ([1]; 7 hr, replicate 3): 4.743; avg. fold induction CHOP ([1]; 7 hr, mean of 3 replicates): 4.366; avg. fold induction DR5 total ([1]; 7 hr, mean of 3 replicates): 1.393; fold induction CHOP ([1]; 7 hr, replicate 1): 4.643; fold induction DR5 total ([1]; 7 hr, replicate 1): 1.47; fold induction CHOP ([1]; 7 hr, replicate 2): 4.143; fold induction DR5 total ([1]; 7 hr, replicate 2): 1.407; fold induction CHOP ([1]; 7 hr, replicate 3): 4.312; fold induction DR5 total ([1]; 7 hr, replicate 3): 1.304; 2^-(deltaCq) CHOP ([1]; 24 hr, replicate 1): 0.04125; 2^-(deltaCq) DR5 total ([1]; 24 hr, replicate 1): 0.04254; Cq CHOP ([1]; 24 hr, replicate 1): 23.6176; Cq DR5 total ([1]; 24 hr, replicate 1): 23.5731; Cq(sample) - avg Cq(GAPDH), CHOP ([1]; 24 hr, replicate 1): 4.6; Cq(sample) - avg Cq(GAPDH), DR5 total ([1]; 24 hr, replicate 1): 4.555; 2^-(deltaCq) CHOP ([1]; 24 hr, replicate 2): 0.03991; 2^-(deltaCq) DR5 total ([1]; 24 hr, replicate 2): 0.04129; Cq CHOP ([1]; 24 hr, replicate 2): 23.6651; Cq DR5 total ([1]; 24 hr, replicate 2): 23.6162; Cq(sample) - avg Cq(GAPDH), CHOP ([1]; 24 hr, replicate 2): 4.647; Cq(sample) - avg Cq(GAPDH), DR5 total ([1]; 24 hr, replicate 2): 4.598; 2^-(deltaCq) CHOP ([1]; 24 hr, replicate 3): 0.039; 2^-(deltaCq) DR5 total ([1]; 24 hr, replicate 3): 0.03658; Cq CHOP ([1]; 24 hr, replicate 3): 23.6985; Cq DR5 total ([1]; 24 hr, replicate 3): 23.7909; Cq(sample) - avg Cq(GAPDH), CHOP ([1]; 24 hr, replicate 3): 4.681; Cq(sample) - avg Cq(GAPDH), DR5 total ([1]; 24 hr, replicate 3): 4.773; avg. fold induction CHOP ([1]; 24 hr, mean of 3 replicates): 1.837; avg. fold induction DR5 total ([1]; 24 hr, mean of 3 replicates): 1.401; fold induction CHOP ([1]; 24 hr, replicate 1): 1.892; fold induction DR5 total ([1]; 24 hr, replicate 1): 1.485; fold induction CHOP ([1]; 24 hr, replicate 2): 1.831; fold induction DR5 total ([1]; 24 hr, replicate 2): 1.441; fold induction CHOP ([1]; 24 hr, replicate 3): 1.789; fold induction DR5 total ([1]; 24 hr, replicate 3): 1.277; BiP avg fold change relative to empty ([1]; Compiled Reps INS RHO, average of 3 reps): 1.525; CHOP avg fold change relative to empty [1, 4]: 1.961; DR5 avg fold change relative to empty [1, 4]: 1.368; GAPDH avg fold change relative to empty [1, 4]: 1.006; GFP construct avg fold change relative to empty [1, 4]: 63.7569; BiP fold change relative to empty ([1]; Compiled Reps INS RHO, rep 1): 1.759; CHOP fold change relative to empty ([1]; Compiled Reps INS RHO, rep 1): 2.318; DR5 fold change relative to empty ([1]; Compiled Reps INS RHO, rep 1): 1.2854; GAPDH fold change relative to empty ([1]; Compiled Reps INS RHO, rep 1): 0.9696; GFP construct fold change relative to empty ([1]; Compiled Reps INS RHO, rep 1): 45.8961; BiP fold change relative to empty ([1]; Compiled Reps INS RHO, rep 2): 1.438; CHOP fold change relative to empty ([1]; Compiled Reps INS RHO, rep 2): 1.9687; DR5 fold change relative to empty ([1]; Compiled Reps INS RHO, rep 2): 1.492; GAPDH fold change relative to empty ([1]; Compiled Reps INS RHO, rep 2): 1.117; GFP construct fold change relative to empty ([1]; Compiled Reps INS RHO, rep 2): 55.1085; BiP fold change relative to empty ([1]; Compiled Reps INS RHO, rep 3): 1.377; CHOP fold change relative to empty ([1]; Compiled Reps INS RHO, rep 3): 1.972; DR5 fold change relative to empty ([1]; Compiled Reps INS RHO, rep 3): 1.23; GAPDH fold change relative to empty ([1]; Compiled Reps INS RHO, rep 3): 0.9232; GFP construct fold change relative to empty ([1]; Compiled Reps INS RHO, rep 3): 65.8656; CHOP fold change relative to empty ([1]; Compiled Reps INS RHO, rep 4): 1.892; DR5 fold change relative to empty ([1]; Compiled Reps INS RHO, rep 4): 1.485; GAPDH fold change relative to empty ([1]; Compiled Reps INS RHO, rep 4): 0.8039; GFP construct fold change relative to empty ([1]; Compiled Reps INS RHO, rep 4): 62.5314; CHOP fold change relative to empty ([1]; Compiled Reps INS RHO, rep 5): 1.831; DR5 fold change relative to empty ([1]; Compiled Reps INS RHO, rep 5): 1.441; GAPDH fold change relative to empty ([1]; Compiled Reps INS RHO, rep 5): 1.063; GFP construct fold change relative to empty ([1]; Compiled Reps INS RHO, rep 5): 61.8163; CHOP fold change relative to empty ([1]; Compiled Reps INS RHO, rep 6): 1.789; DR5 fold change relative to empty ([1]; Compiled Reps INS RHO, rep 6): 1.277; GAPDH fold change relative to empty ([1]; Compiled Reps INS RHO, rep 6): 1.16; GFP construct fold change relative to empty ([1]; Compiled Reps INS RHO, rep 6): 91.3236; UPR target gene transcription ([1]; HCT116, transfected 24 hr): upregulated BiP and CHOP mRNAs; PARP cleavage and annexin V staining ([2]; HCT116, transfected 24 hr, Nt or DR5 siRNA): induced PARP cleavage and annexin V staining in a DR5-dependent manner; Mean ± SEM (siDR5), Annexin V ([2]; siDR5, N=3): 19 ± 0.033 N=3; 95% confidence interval of difference, Annexin V ([2]; siDR5 vs. siNt): -22 to -5.1; Difference between means, Annexin V ([2]; siDR5 vs. siNt): -13 ± 3.0; Mean ± SEM (siNt), Annexin V ([2]; siNt, N=3): 33 ± 3.0 N=3

— article PMC7041945, “Misfolded proteins bind and activate death receptor 5 to trigger apoptosis during unresolved endoplasmic reticulum stress” (eLife, 2020)
